From PubChem BioAssay AID1919004 (Molecular Pharmacology Branch, DTP, NCI, 2023)
“And” between values parts separate entries of the source, which are not always exact repeats. Identical values can stand only once.

Tested on: 883617-216-R-J1-PDC complex spheroids, growth, % test/control
Test: Anticancer human tumor 883617-216-R-J1-PDC patient-derived bladder carcinoma cell line growth inhibition [AhR]
Conditions: for viability, T/C: stronger effect = lower value
How it was run: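 Agents were dosed in half-log steps down from roughly clinical Cmax, or from 10 microM where Cmax was unknown, alone and with AhR antagonists. Read-out: percent test/control growth of tumor spheroids containing HUVEC and MSC stromal cells.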

[1] = curve of first compound, second compound 0.1 µM
[2] = curve of first compound, second compound 0.316 µM
[3] = curve of first compound, second compound 1 µM
[4] = curve of first compound, second compound 3.16 µM
[5] = curve of first compound, second compound 10 µM
[6] = second compound 0.1 µM, first compound 0.0316 µM
[7] = second compound 0.1 µM, first compound 0.1 µM
[8] = second compound 0.1 µM, first compound 0.316 µM
[9] = second compound 0.1 µM, first compound 1 µM
[10] = second compound 0.1 µM, first compound 3.16 µM
[11] = second compound 0.1 µM, first compound 10 µM
[12] = second compound 0.316 µM, first compound 0.0316 µM
[13] = second compound 0.316 µM, first compound 0.1 µM
[14] = second compound 0.316 µM, first compound 0.316 µM
[15] = second compound 0.316 µM, first compound 1 µM
[16] = second compound 0.316 µM, first compound 3.16 µM
[17] = second compound 0.316 µM, first compound 10 µM
[18] = second compound 1 µM, first compound 0.0316 µM
[19] = second compound 1 µM, first compound 0.1 µM
[20] = second compound 1 µM, first compound 0.316 µM
[21] = second compound 1 µM, first compound 1 µM
[22] = second compound 1 µM, first compound 3.16 µM
[23] = second compound 1 µM, first compound 10 µM
[24] = second compound 3.16 µM, first compound 0.0316 µM
[25] = second compound 3.16 µM, first compound 0.1 µM
[26] = second compound 3.16 µM, first compound 0.316 µM
[27] = second compound 3.16 µM, first compound 1 µM
[28] = second compound 3.16 µM, first compound 3.16 µM
[29] = second compound 3.16 µM, first compound 10 µM
[30] = second compound 10 µM, first compound 0.0316 µM
[31] = second compound 10 µM, first compound 0.1 µM
[32] = second compound 10 µM, first compound 0.316 µM
[33] = second compound 10 µM, first compound 1 µM
[34] = second compound 10 µM, first compound 3.16 µM
[35] = second compound 10 µM, first compound 10 µM
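Also: exposure lasted 7 days after dosing on day 3 of spheroid growth.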

SMILES	IC50 [1] [nM]	IC50 [2] [nM]	IC50 [3] [nM]	IC50 [4] [nM]	IC50 [5] [nM]	viability, T/C [6] [%]	viability, T/C [7] [%]	viability, T/C [8] [%]	viability, T/C [9] [%]	viability, T/C [12] [%]	viability, T/C [13] [%]	viability, T/C [14] [%]	viability, T/C [15] [%]	viability, T/C [18] [%]	viability, T/C [19] [%]	viability, T/C [20] [%]	viability, T/C [21] [%]	viability, T/C [24] [%]	viability, T/C [25] [%]	viability, T/C [26] [%]	other results
COc1cc(C2c3cc4c(cc3C(OC3OC5COC(C)OC5C(O)C3O)C3COC(=O)C23)OCO4)cc(OC)c1O (stereo unspecified)																					viability, T/C (compound 0.0316 µM): 91.8% and 80.6% and 110%; viability, T/C (compound 0.1 µM): 107% and 89.4% and 97.1%; viability, T/C (compound 0.316 µM): 75.1% and 76.3% and 79.2%; viability, T/C (compound 1 µM): 63.8% and 88.8% and 74%; viability, T/C (compound 3.16 µM): 69.7% and 85.2% and 68.1%; viability, T/C (compound 10 µM): 59.4% and 84.4% and 59.1%; IC50 (curve of compound): > 10000 nM
CCN(c1cc(-c2ccc(CN3CCOCC3)cc2)cc(C(=O)NCc2c(C)cc(C)[nH]c2=O)c1C)C1CCOCC1																					viability, T/C (compound 0.00949 µM): 95.9% and 98.2% and 103%; viability, T/C (compound 0.03 µM): 89.1% and 111% and 60.8%; viability, T/C (compound 0.0949 µM): 106% and 89.9% and 90.6%; viability, T/C (compound 0.3 µM): 105% and 95.1% and 99.1%; viability, T/C (compound 0.949 µM): 104% and 115% and 88.1%; viability, T/C (compound 3 µM): 95.5% and 93.6% and 130%; IC50 (curve of compound): > 3000 nM
COc1cccc2c1C(=O)c1c(O)c3c(c(O)c1C2=O)CC(O)(C(=O)CO)CC3OC1CC(N)C(O)C(C)O1 (stereo unspecified) + Cc1cncc(-c2nc(NCCc3c[nH]c4ccccc34)c3ncn(C(C)C)c3n2)c1	393	437	404	400	< 31.6	74.5	66.3	57.9	18.8	65.3	62.6	64.4	14	81.8	74.5	62.1	5.5	77.1	75	62.7	viability, T/C [10]: 0.11%; viability, T/C [11]: 0.16%; viability, T/C [16]: 0.05%; viability, T/C [17]: 0.15%; viability, T/C [22]: 0.05%; viability, T/C [23]: 1.21%; viability, T/C [27]: 0.89%; viability, T/C [28]: 0.17%; viability, T/C [29]: 1.17%; viability, T/C [30]: 41.7%; viability, T/C [31]: 37.4%; viability, T/C [32]: 34.3%; viability, T/C [33]: 0.82%; viability, T/C [34]: 0.12%; viability, T/C [35]: 0.16%
O=C(C=Cc1cccc(S(=O)(=O)Nc2ccccc2)c1)NO + CC(CO)NC(=O)c1cc(-c2ccc(Cl)cc2)nn(-c2cnn(C)c2)c1=O	3570	3500	793	1510	1820	88.5	96.9	78.1	86.6	95.2	87.6	85.7	105	75.3	62.7	113	41.5	104	66	67.6	viability, T/C [10]: 55%; viability, T/C [11]: 7.64%; viability, T/C [16]: 54.7%; viability, T/C [17]: 1.72%; viability, T/C [22]: 41.6%; viability, T/C [23]: 1.68%; viability, T/C [27]: 69.5%; viability, T/C [28]: 36.6%; viability, T/C [29]: 6.34%; viability, T/C [30]: 101%; viability, T/C [31]: 89.5%; viability, T/C [32]: 101%; viability, T/C [33]: 54%; viability, T/C [34]: 40.9%; viability, T/C [35]: 1.34%
CC1(C)CCC(CN2CCN(c3ccc(C(=O)NS(=O)(=O)c4ccc(NCC5CCOCC5)c([N+](=O)[O-])c4)c(Oc4cnc5[nH]ccc5c4)c3)CC2)=C(c2ccc(Cl)cc2)C1																					viability, T/C (compound 0.0316 µM): 97.3% and 96.7% and 85.8%; viability, T/C (compound 0.1 µM): 105% and 106% and 130%; viability, T/C (compound 0.316 µM): 101% and 98.7% and 110%; viability, T/C (compound 1 µM): 101% and 98.4% and 92.5%; viability, T/C (compound 3.16 µM): 99.6% and 105% and 72.3%; viability, T/C (compound 10 µM): 30.6% and 64.7% and 33.8%; IC50 (curve of compound): 7230 nM and > 10000 nM and 6070 nM

Second part, led by results:

IC50 [1] [nM]	IC50 [2] [nM]	IC50 [3] [nM]	IC50 [4] [nM]	IC50 [5] [nM]	SMILES	viability, T/C [6] [%]	viability, T/C [7] [%]	viability, T/C [8] [%]	viability, T/C [9] [%]	viability, T/C [12] [%]	viability, T/C [13] [%]	viability, T/C [14] [%]	viability, T/C [15] [%]	viability, T/C [18] [%]	viability, T/C [19] [%]	viability, T/C [20] [%]	viability, T/C [21] [%]	viability, T/C [24] [%]	viability, T/C [25] [%]	viability, T/C [26] [%]	other results
> 10000	> 10000	> 10000	> 10000	> 10000	Nc1ccn(C2OC(CO)C(O)C2(F)F)c(=O)n1 (stereo unspecified) + CC(CO)NC(=O)c1cc(-c2ccc(Cl)cc2)nn(-c2cnn(C)c2)c1=O	82.9	91.6	95.4	88.3	82.2	99	97.8	84.8	96.8	76.4	113	77.7	81	91.8	108	viability, T/C [10]: 58.7%; viability, T/C [11]: 85.3%; viability, T/C [16]: 85.8%; viability, T/C [17]: 86.3%; viability, T/C [22]: 75.7%; viability, T/C [23]: 72.1%; viability, T/C [27]: 52.7%; viability, T/C [28]: 63.4%; viability, T/C [29]: 63.5%; viability, T/C [30]: 63.2%; viability, T/C [31]: 124%; viability, T/C [32]: 87%; viability, T/C [33]: 72.7%; viability, T/C [34]: 78.2%; viability, T/C [35]: 76.6%
< 31.6	< 31.6	< 31.6	70.8	< 31.6	Nc1ccn(C2OC(CO)C(O)C2(F)F)c(=O)n1 (stereo unspecified) + Cc1cncc(-c2nc(NCCc3c[nH]c4ccccc34)c3ncn(C(C)C)c3n2)c1	32.6	39.7	43.1	41.3	34.5	38.8	44.9	38.4	46.1	33.8	39.3	37.5	71.3	39.3	40.6	viability, T/C [10]: 44%; viability, T/C [11]: 38.9%; viability, T/C [16]: 39.5%; viability, T/C [17]: 39.4%; viability, T/C [22]: 41.9%; viability, T/C [23]: 43.4%; viability, T/C [27]: 41.2%; viability, T/C [28]: 43.5%; viability, T/C [29]: 39.1%; viability, T/C [30]: 33.1%; viability, T/C [31]: 16.4%; viability, T/C [32]: 13.5%; viability, T/C [33]: 10.9%; viability, T/C [34]: 15.8%; viability, T/C [35]: 18%
> 1000	> 1000	> 1000	> 1000	> 1000	Nc1ncn(C2CC(O)C(CO)O2)c(=O)n1 (stereo unspecified) + Cc1ccccc1N=Nc1ccc(NC(=O)c2ccnn2C)c(C)c1	83.6	82.8	75.5	73.1	87.8	80.1	78.8	76.6	101	77.9	67.6	77.1	75.8	72.8	79.6	viability, T/C (second compound 0.1 µM, first compound 0.00316 µM): 89.3%; viability, T/C (second compound 0.1 µM, first compound 0.01 µM): 94.7%; viability, T/C (second compound 0.316 µM, first compound 0.00316 µM): 82.9%; viability, T/C (second compound 0.316 µM, first compound 0.01 µM): 83.5%; viability, T/C (second compound 1 µM, first compound 0.00316 µM): 79.9%; viability, T/C (second compound 1 µM, first compound 0.01 µM): 88.1%; viability, T/C (second compound 3.16 µM, first compound 0.00316 µM): 71.1%; viability, T/C (second compound 3.16 µM, first compound 0.01 µM): 84.2%; viability, T/C [27]: 81.2%; viability, T/C (second compound 10 µM, first compound 0.00316 µM): 84.7%; viability, T/C (second compound 10 µM, first compound 0.01 µM): 79.2%; viability, T/C [30]: 74.3%; viability, T/C [31]: 77.7%; viability, T/C [32]: 74.2%; viability, T/C [33]: 77.9%
269	456	501	230	167	COc1cccc2c1C(=O)c1c(O)c3c(c(O)c1C2=O)CC(O)(C(=O)CO)CC3OC1CC(N)C(O)C(C)O1 (stereo unspecified) + CC(CO)NC(=O)c1cc(-c2ccc(Cl)cc2)nn(-c2cnn(C)c2)c1=O	115	116	39.2	4.71	90.5	94.2	70.9	4.94	95.2	93.9	82.1	1.75	91.5	107	31.2	viability, T/C [10]: 2.59%; viability, T/C [11]: 1.67%; viability, T/C [16]: 5.79%; viability, T/C [17]: 4.67%; viability, T/C [22]: 2.44%; viability, T/C [23]: 1.47%; viability, T/C [27]: 3.13%; viability, T/C [28]: 3.56%; viability, T/C [29]: 0.65%; viability, T/C [30]: 113%; viability, T/C [31]: 65.8%; viability, T/C [32]: 32.6%; viability, T/C [33]: 1.76%; viability, T/C [34]: 1.75%; viability, T/C [35]: 1.1%
